Data set [1] has as its system human MDA-MB-231 breast cancer cells. Description: Cell viability (Alamar Blue) antiproliferative assay in MDA-MB-231 cells. Format: cell-based. The settings on record: mean ± SEM. How it is done: The human breast carcinoma cell line MCF-7, was purchased from the European Collection of Animal Cell Cultures (ECACC) and was cultured in Eagle’s minimum essential medium with 10% fetal bovine serum, 2 mM L-glutamine and 100 μg/mL penicillin/streptomycin. The medium was supplemented with 1% non-essential amino acids. The human breast carcinoma cell line MDA-MB-231 was purchased from the European Collection of Animal Cell Cultures (ECACC). MDA-MB-231 cells were maintained in Dulbecco’s modified Eagle’s medium (DMEM) supplemeted with 10% (v/v) fetal bovine serum, 2 mM L-glutamine and 100 μg/mL penicillin/streptomycin (complete medium). All media contained 100 U/mL penicillin and 100 μg/mL streptomycin. Triple negative breast cancer Hs578T cells and its invasive variant Hs578Ts(i)8 were obtained as a kind gift from Dr. Susan McDonnell, School of Chemical and Bioprocess Engineering, University College Dublin and were cultured in Dulbecco’s Modified Eagle’s Media (DMEM) with GlutaMAX^TM-I, with the same supplement as for MDA-MB-231 cells in the absence of non-essential amino acids. HEK-293T normal epithelial embryonic kidney cells were cultured in Dulbecco’s Modified Eagle’s Medium (DMEM) with GlutaMAX^TM-I in the absence of non-essential amino acids. K562 and HL-60 cells were originally obtained from the European Collection of Cell Cultures (Salisbury, UK).The K562 cells were derived from a patient in the blast crisis stage of CML HL-60 cells were derive from a patient with acute myeloid leukaemia. Cells were cultured in RPMI-1640 Glutamax medium supplemented with 10% FCS media, and 100 μg/mL penicillin/streptomycin. Cells were maintained at 37 °C in 5% CO2 in a humidified incubator. All cells were sub-cultured three times/week (adherent cells by trypsinisation).
Cells were seeded at a density of 5 × 10^3 cells/well (MCF-7), in triplicate in 96-well plates. After 24 h, cells were then treated with either medium alone, vehicle [1% ethanol (v/v)] or with serial dilutions of CA-4 or β-lactam analogue. Cell viability for MCF-7 and MDA-MB-231 was analysed using the Alamar Blue assay (Invitrogen Corp, Thermo Fisher Scientific, 168 Third Avenue, Waltham, MA, USA) according to the manufacturer’s instructions. After 72 h, Alamar Blue [10% (v/v)] was added to each well and plates were incubated for 3–5 h at 37 °C in the dark. Fluorescence was read using a 96-well fluorimeter with excitation at 530 nm and emission at 590 nm. Results were expressed as percentage viability relative to vehicle control (100%). Dose response curves were plotted and IC50 values (concentration of drug resulting in 50% reduction in cell survival) were obtained using the commercial software package Prism (GraphPad Software, Inc., 2365 Northside, Suite 560, San Diego, CA, USA). Experiments were performed in triplicate on at least three separate occasions.

Data set [2] concerns HL-60. Description: Antiproliferative activity in HL-60 leukemia cells. It counts as cell-based. To be noted: Homo sapiens. How it is done:
The human breast carcinoma cell line MCF-7, was purchased from the European Collection of Animal Cell Cultures (ECACC) and was cultured in Eagle’s minimum essential medium with 10% fetal bovine serum, 2 mM L-glutamine and 100 μg/mL penicillin/streptomycin. The medium was supplemented with 1% non-essential amino acids. The human breast carcinoma cell line MDA-MB-231 was purchased from the European Collection of Animal Cell Cultures (ECACC). MDA-MB-231 cells were maintained in Dulbecco’s modified Eagle’s medium (DMEM) supplemeted with 10% (v/v) fetal bovine serum, 2 mM L-glutamine and 100 μg/mL penicillin/streptomycin (complete medium). All media contained 100 U/mL penicillin and 100 μg/mL streptomycin. […]
Cells were seeded at a density of 5 × 10^3 cells/well (MCF-7), in triplicate in 96-well plates. […] Cell viability for MCF-7 and MDA-MB-231 was analysed using the Alamar Blue assay (Invitrogen Corp, Thermo Fisher Scientific, 168 Third Avenue, Waltham, MA, USA) according to the manufacturer’s instructions. […] Fluorescence was read using a 96-well fluorimeter with excitation at 530 nm and emission at 590 nm. Results were expressed as percentage viability relative to vehicle control (100%). […]

The subject of data set [3] is K562. Description: Antiproliferative activity in K562 leukemia cells. Format: cell-based. The settings on record: Homo sapiens.
Data set [4] is described as follows: Cytotoxicity assay in primary murine mammary epithelial cells (alamar blue). The settings on record: female, CD-1, mouse, primary mammary epithelial cells, 72 h; for viability at 72 h, 10 μM: murine epithelial cells, read-out: % Viable cells; for viability at 72 h: at the compound's IC50 in MCF-7 cells, read-out: % Viable cells at IC50. It counts as cell-based, mouse. How it is done: (§1) As previously reported mammary glands from 14–18 day pregnant CD-1 mice were used as source and primary mammary epithelial cell cultures were prepared from these. The isolated mammary epithelial cells were seeded at two concentrations (25,000 cells/mL and 50,000 cells/mL). […] After 24 h, the cells were treated with 2 µL volumes of test compound 7s which had been pre-prepared as stock solutions in ethanol to furnish the concentration range of study, 1 nM–100 µM, and re-incubated for a further 72 h. Control wells contained the equivalent volume of the vehicle ethanol (1% v/v). The cytotoxicity was assessed using alamar blue dye.

The test system of data set [5] is normal murine mammary epithelial cells. Described as above. The settings on record: for IC50: Mus musculus, Epithelial cell, alamar blue; for IC50 / % Viable cells at IC50: 72 h; for % Viable cells at IC50: at the compound's IC50 in MCF-7 cells, 25,000 cells/mL. Format: cell-based, mouse. As to the method:
as §1

Data set [6] has as its system MCF-7 cells. Description: Cell cycle analysis (PI flow cytometry). It counts as cell-based, human. The settings on record: for apoptotic cells (sub-G0G1): 72 h. How it is done: MCF-7 cells (adherent and detached) were treated with the appropriate concentration of compound 7s and incubated for the designated time. Cells were collected, trypsinised and centrifuged at 800× g for 15 min. Cells were washed twice with ice-cold PBS and fixed in ice-cold 70% ethanol overnight at −20 °C. Fixed cells were centrifuged at 800× g for 15 min and stained with 50 μg/mL of PI, containing 50 μg/mL of DNase-free RNase A, at 37 °C for 30 min.

The subject of data set [7] is MCF-7 cells. Description: Annexin V/PI apoptotic assay. To be noted: for apoptotic cells (annexin-V positive): MCF-7, 72 h.
Description: Apoptotic cell death was detected by flow cytometry using Annexin V and propidium iodide (PI). […] Cells were then harvested and prepared for flow cytometric analysis. Cells were washed in 1X binding buffer (20X binding buffer: 0.1M HEPES, pH 7.4; 1.4 M NaCl; 25 mM CaCl2 diluted in dH2O) and incubated in the dark for 30 min on ice in Annexin V-containing binding buffer [1:100]. Cells were then washed once in binding buffer and then re-suspended in PI-containing binding buffer [1:1000]. […] Four populations are produced during the assay Annexin V and PI negative (Q4, healthy cells), Annexin V positive and PI negative (Q3, early apoptosis), Annexin V and PI positive (Q2, late apoptosis) and Annexin V negative and PI positive (Q1, necrosis). Paclitaxel was used as a positive control for cell death
For data set [8], the system named is A549/ATCC. Description: NCI60 screen (SRB), Non-Small Cell Lung Cancer. Format: cell-based. The settings on record: Homo sapiens.
The test system of data set [9] is HOP-62. Description: NCI60 screen (SRB), Non-Small Cell Lung Cancer. It counts as cell-based. To be noted: Homo sapiens.
Data set [10] has as its system NCI-H23. Description: NCI60 screen (SRB), Non-Small Cell Lung Cancer. It counts as cell-based. The settings on record: Homo sapiens.
For data set [11], the system named is T-47D. Description: NCI60 screen (SRB), Breast cancer. It counts as cell-based. The settings on record: Homo sapiens, T47D.
Setting [12] is: Homo sapiens, MCF7, 72 h, read-out: Viable.
Setting [13] is: NCI60 Breast cancer cell line T-47D, read-out: GI50.

Where two headings read alike, the source gives them in different places. Bounds are passed on as bounds.

On to `COc1ccc(/C=C\c2cc(OC)c(OC)c(OC)c2)cc1O` [CA-4, Combretastatin A-4, reference compound], for which the 50% inhibitory concentration (IC50) is 43 nM in [1], 4 nM in data set [2], 4 nM in data set [3] and over 10 µM in [5]. Moreover, the viability at 72 h, 10 μM in data set [4] (10 μM, 25,000 cells/mL) is 58%; in [4] (10 μM, 50,000 cells/mL), 75%. Also, the viability at 72 h is 74% in data set [4] (25,000 cells/mL) and 92.1% in [4] (50,000 cells/mL). The “% Viable cells at IC50” value in [5] is 73.6%. The “cells in G2M arrest” value in data set [6] (100 nM, 48 h) turned out to be 52%. Moreover, the sub-G0G1 population in data set [6] (100 nM, 48 h) is given as 9.4%. Also, the viability at 0.05 µM in data set [7] (setting [12]) is 61.8%. Further, in [7] (50 nM), the “apoptotic cells (annexin-V positive)” value worked out at 34.6%.

For the molecule `C=CC1C(=O)N(c2cc(OC)c(OC)c(OC)c2)C1c1ccc(OC)cc1` (stereo not drawn) [Compound 7h, 4-(4-Methoxyphenyl)-1-(3,4,5-trimethoxyphenyl)-3-vinylazetidin-2-one], the concentration for 50% growth inhibition (GI50) in data set [8] is 41.3 nM; in [9], 36.9 nM; in [10], 24.5 nM; in [11], 20.5 µM.

For `C=CC1C(=O)N(c2cc(OC)c(OC)c(OC)c2)C1c1ccc(OC)c(O)c1` (stereo not drawn) [Compound 7s, 4-[3-Hydroxy-4-methoxyphenyl]-1-(3,4,5-trimethoxyphenyl)-3-vinylazetidin-2-one], the IC50 in data set [2] is 17 nM; in data set [3], 26 nM; in [5] it was over 10 µM. Moreover, the viability at 72 h, 10 μM in [4] (10 μM, 25,000 cells/mL) was 60%; in data set [4] (10 μM, 50,000 cells/mL), 73.3%. In addition, the viability at 72 h in data set [4] (25,000 cells/mL) is 93%; in data set [4] (50,000 cells/mL), over 90%. Moreover, the “cytotoxicity against murine mammary epithelial cells” value in data set [5] is “minimal cytotoxicity”. For the same molecule, in data set [5], the “% Viable cells at IC50” value is 93.1%. In addition, the “cells in G2M arrest” value is reported as 64% in [6] (10 nM, 24 h) and 82% in [6] (100 nM, 24 h). For the same molecule, the “apoptotic cells (sub-G0G1)” value is reported as 14% in data set [6] (10 nM) and 26% in [6] (100 nM). Moreover, the GI50 in [11] (setting [13]) was determined as 0.0299 µM. In addition, the viability at 0.01 µM in data set [7] (setting [12]) is 82.8%. Also, the viability at 0.1 µM in [7] (setting [12]) is 64.5%. In addition, the “apoptotic cells (annexin-V positive)” value in [7] (10 nM) is reported as “About 13.6%”; in data set [7] (100 nM), 31.9%.

In data set [1], `C=CC1C(=O)N(c2cc(OC)c(OC)c(OC)c2)C1c1ccc(OC)c(N)c1` (stereo not drawn) [Compound 7t, 4-(3-Amino-4-methoxyphenyl)-1-(3,4,5-trimethoxyphenyl)-3-vinylazetidin-2-one] yielded an IC50 of 30 ± 2 nM. In addition, the GI50 in data set [8] stood at 39.2 nM; in data set [9], 41.2 nM; in data set [10], 38.7 nM.

Turning to `C=CC1C(=O)N(c2cc(OC)c(OC)c(OC)c2)C1c1ccc(OC)c(OP(=O)(O)O)c1` (stereo not drawn) [Compound 17b, 2-Methoxy-5-(1-(3,4,5-trimethoxyphenyl)-4-oxo-3-vinylazetidin-2-yl)phenyl dihydrogen phosphate], in data set [11] (setting [13]), the GI50 was over 100 µM.

As to `CCC1C(=O)N(c2cc(OC)c(OC)c(OC)c2)C1c1ccc(OC)c(OP(=O)(O)O)c1` (stereo not drawn) [Compound 17c, 5-(3-Ethyl-1-(3,4,5-trimethoxyphenyl)-4-oxoazetidin-2-yl)-2-methoxyphenyl dihydrogen phosphate], the midpoint of inhibition in data set [1], the IC50, lay at 44 ± 7 nM. For the same molecule, the GI50 in data set [11] (setting [13]) was over 100 µM.

These data come from article PMC6630832, “3-Vinylazetidin-2-Ones: Synthesis, Antiproliferative and Tubulin Destabilizing Activity in MCF-7 and MDA-MB-231 Breast Cancer Cells” (Pharmaceuticals, 2019).
